# Results taken from US7629150B2, “Transformed cell harboring DNA or RNA encoding sugar chain synthesizing agent having β1,3-N-acetylglucosaminyltransferase activity” (Kyowa Hakko Kirin Co., Ltd., priority 2000, dated 2009).
# Tests used:
# [1] = molecular target: T1, G6sec2 (Homo sapiens, UniProt Q9BYG0); assay: β1,3-N-acetylglucosaminyltransferase activity using pyridylaminated oligosaccharides as substrates; type: biochemical; details: 37° C., 14.5 hours
# T1 construct: made in house; host or cells: Sf21 insect cells infected with pVL1393-F2G6sec2-derived recombinant baculovirus
# T1 sequence (Q9BYG0 39-378): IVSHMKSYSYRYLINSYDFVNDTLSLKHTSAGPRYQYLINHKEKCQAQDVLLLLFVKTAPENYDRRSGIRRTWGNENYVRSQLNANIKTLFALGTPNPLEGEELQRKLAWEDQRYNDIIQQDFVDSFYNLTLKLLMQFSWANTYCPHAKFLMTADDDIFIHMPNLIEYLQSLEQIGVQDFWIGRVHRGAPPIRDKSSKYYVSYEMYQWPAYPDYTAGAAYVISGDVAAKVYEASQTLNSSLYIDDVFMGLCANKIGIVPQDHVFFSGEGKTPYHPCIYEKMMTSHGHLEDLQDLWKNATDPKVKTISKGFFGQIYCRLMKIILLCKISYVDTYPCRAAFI
# Description: After carrying out the reaction at 37° C. for 14.5 hours in 30 μl of an assay solution [150 mmol/l sodium cacodylate (pH 7.2), 50 mmol/l UDP-GlcNAc (manufactured by SIGMA), 0.4% Triton CF-54, 10 mmol/l MnCl2, 50 μmol/l pyridylaminated sugar chain substrate, a purified enzyme solution (G6sec2)], the product was detected by HPLC. The purified enzyme (G6sec2) was obtained according to the method shown in Example 8(6). The purified enzyme (280 μl) was prepared from 30 ml of a culture supernatant of Sf21 infected with the recombinant virus derived from pVL1393-F2G6sec2, and the assay was carried out using 5 μl thereof. As substrates, LnNT, lacto-N-tetraose (Galβ1-3GlcNAcβ1-3Galβ1-4Glc (hereinafter referred to as “LNT”), lacto-N-fucopentaose II (Galβ1-3(Fucα1-4)GlcNAcβ1-3Galβ1-4Glc; hereinafter referred to as “LNFP-II”), lacto-N-fucopentaose III (Galβ1-4(Fucα1-3)GlcNAcβ1-3Galβ1-4Glc; hereinafter referred to as “LNFP-III”), lacto-N-fucopentaose V (Galβ1-3GlcNAcβ1-3Galβ1-4(Fucα1-3)Glc; hereinafter referred to as “LNFP-V”), and lacto-N-difucohexaose II (Galβ1-3(Fucα1-4)GlcNAcβ1-3Galβ1-4(Fucα1-3)Glc; hereinafter referred to as “LNDFH-II”) (all manufactured by Oxford Glycosystems) were fluorescently-labeled with aminopyridine and used. The substrates were fluorescently-labeled according to a conventional method [Agric. Biol. Chem., 54, 2169 (1990)].
# After carrying out the reaction on each substrate using an assay solution containing UDP-GlcNAc (saccharide donor) and an assay solution containing no donor and subsequently analyzing by HPLC, peaks appeared only in the assay solution containing UDP-GlcNAc was defined as products.
# The assay solution after completion of the reaction was treated at 100° C. for 5 minutes and then centrifuged at 10,000×g for 5 minutes to obtain a supernatant, and a part thereof (5 μl) was subjected to HPLC.
# The HPLC was carried out using TSK-gel ODS-80Ts Column (4.6×300 mm; manufactured by TOSOH) and 0.02 mol/l ammonium acetate buffer (pH 4.0) as the eluant at an elution temperature of 50° C. and a flow rate of 0.5 ml/min.
# Detection and determination of products were carried out using a fluorescence spectrophotometer FP-920 (manufactured by JASCO Corporation) (excitation wavelength: 320 nm, radiation wavelength: 400 nm).
# [2] = molecular target: T1, G6sec2; assay: β1,3-N-acetylglucosaminyltransferase activity using unlabeled oligosaccharides as substrates (HPAE/PAD); type: biochemical; details: unlabeled oligosaccharide 10 mmol/l, 37° C., 16 hours
# Description: The glycosyltransferase reaction was carried out as follows. The reaction was carried out at 37° C. for 16 hours in 40 μl of an assay solution [50 mmol/l MOPS (pH 7.5), 5 mmol/l UDP-GlcNAc (manufactured by SIGMA), 5 mmol/l MnCl2, 10 mmol/l sugar chain substrate, a purified enzyme solution (G6sec2)]. Next, the mixture was treated at 100° C. for 5 minutes and then centrifuged at 10,000×g for 20 minutes to obtain a supernatant, and a part thereof was analyzed using HPAE/PAD ([…]; manufactured by DIONEX). The method was specifically carried out according to a conventional method [Anal. Biochem., 189, 151-162 (1990), J. Biol. Chem., 273, 433-440 (1998)].
# As a purified enzyme (G6sec2), […] of the enzyme obtained in the above (2) was used. As substrates, unlabeled oligosaccharides [lactose (Galβ1-4Glc) and LNnT] were used.
# After the reaction on each substrate using an assay solution containing UDP-GlcNAc (saccharide donor) and an assay solution containing no donor, analysis was carried out using HPAE/PAD and peaks appeared only in the assay solution containing UDP-GlcNAc were defined as products. The product was identified using coincidence of its elution time with that of standard sugar chain as the index. As standard sugar chains, GlcNAcβ1-3Galβ1,4Glc and GlcNAcβ1-3Galβ1,4GlcNAcβ1-3Galβ1-4Glc were used.
compound,measurement,setting,value
"CC(=O)N[C@H]1[C@H](O[C@H]2[C@@H](O)[C@@H](CO)O[C@@H](O[C@H]3[C@H](O)[C@@H](O)C(O)O[C@@H]3CO)[C@@H]2O)O[C@H](CO)[C@@H](O[C@@H]2O[C@H](CO)[C@H](O)[C@H](O)[C@H]2O)[C@@H]1O (mixture of isomers) [LNnT, lacto-N-neotetraose]",Relative activity (%),"[1]; pyridylaminated oligosaccharides 50 μmol/l, LNnT defined as 100%",100%
same,conversion efficiency of the substrate into the product,[1]; pyridylaminated substrate 50 μmol/l,12.8%
same,conversion efficiency into the product,[2],0.48%
